Several values for one entry are separate records, joined by “and”; a condition that tells them apart may be missing. Equal entries are not always repeated.
Key:
[1] = molecular target: T1, Xanthine oxidase (XOD), febuxostat binding domain (Bos taurus, UniProt P80457); test: Affinity ultrafiltration LC-MS (UF-LC-MS) screening, febuxostat-masked vs unmasked XOD; conditions: peak area with vs without febuxostat preincubation of XOD; extract 2 mg/mL
T1 construct: purchased Sigma-Aldrich Co., Ltd. (St. Louis, MO, USA)
Experimental: Based on the variation in the chromatogram with and without febuxostat binding in the XOD, the binding degree was used to evaluate the febuxostat competitive capacity of compounds in celery seeds. The binding degree (BD) was calculated as follows: BD(%)=Af−Ano_f/Af×100%
Af and Ano_f represent the peak area of compounds in the chromatogram with and without preincubation with febuxostat, respectively.
Identification of potential XOD inhibitors from celery seed extract was performed using UF–LC–MS according to a previous study with modification. To prepare the XOD interaction solution, 250 μL of XOD (0.5 U/mL) was incubated with 50 μL of febuxostat (the XOD inhibitor, 500 μg/mL in 10% DMSO-PBS, masked group) to mask the druggable binding domain of XOD or 10% DMSO-PBS (vehicle control, unmasked group) at 37 °C for 45 min. The extract (50 μL at 2 mg/mL in methanol) was then added to the interaction solution for a further 45 min. After incubation, the mixtures were transferred to a 10 kDa molecule weight cut-off ultrafiltration filter and centrifuged at 14,500 rpm for 20 min. The membrane was washed 3 times with 450 μL ddH2O to remove the unbound molecules. […] The elution solution was then ultrafiltered in the new filter units as described above. The final products in the bottom of the filter units were analyzed using a HPLC–MS system.

Xanthine oxidase (XOD) = molecular target: T2, Xanthine oxidase (XOD) (Bos taurus, UniProt P80457); test: XOD activity assay (absorbance at 290 nm, xanthine substrate); type: biochemical; conditions: XOD 0.02 U/mL, xanthine 0.48 mM, 37 °C, OD 290 nm; read-out: IC50 of XOD inhibition
T2 construct: purchased Sigma-Aldrich Co., Ltd. (St. Louis, MO, USA)
Experimental: The inhibitory effects of compounds were determined in the XOD activity assay according to a previous report with minor modifications. Celery seed extracts or the “hit” compounds from the UF–LC–MS screening assay were dissolved in PBS and prepared for a series of test solutions using 2-fold serial dilutions. Test solutions (50 μL) were mixed with XOD (50 μL at 0.02 U/mL) and incubated at 37 °C for 5 min. This was followed by the addition of XOD substrate xanthine (150 μL at 0.48 mM) and further incubation at 37 °C for 30 min. The optical density (OD) of each tube was then measured at 290 nm. Percent XOD inhibition was calculated using the following formula: %=1−A1−A2/A3−A4×100 where A1 was the absorbance of the production with the sample and XOD, A2 was the absorbance of the production with the sample, A3 was the absorbance of the production with PBS and XOD, and A4 was the absorbance of the production with PBS.

T1 sequence (P80457 whole entry, the tested form may be a part): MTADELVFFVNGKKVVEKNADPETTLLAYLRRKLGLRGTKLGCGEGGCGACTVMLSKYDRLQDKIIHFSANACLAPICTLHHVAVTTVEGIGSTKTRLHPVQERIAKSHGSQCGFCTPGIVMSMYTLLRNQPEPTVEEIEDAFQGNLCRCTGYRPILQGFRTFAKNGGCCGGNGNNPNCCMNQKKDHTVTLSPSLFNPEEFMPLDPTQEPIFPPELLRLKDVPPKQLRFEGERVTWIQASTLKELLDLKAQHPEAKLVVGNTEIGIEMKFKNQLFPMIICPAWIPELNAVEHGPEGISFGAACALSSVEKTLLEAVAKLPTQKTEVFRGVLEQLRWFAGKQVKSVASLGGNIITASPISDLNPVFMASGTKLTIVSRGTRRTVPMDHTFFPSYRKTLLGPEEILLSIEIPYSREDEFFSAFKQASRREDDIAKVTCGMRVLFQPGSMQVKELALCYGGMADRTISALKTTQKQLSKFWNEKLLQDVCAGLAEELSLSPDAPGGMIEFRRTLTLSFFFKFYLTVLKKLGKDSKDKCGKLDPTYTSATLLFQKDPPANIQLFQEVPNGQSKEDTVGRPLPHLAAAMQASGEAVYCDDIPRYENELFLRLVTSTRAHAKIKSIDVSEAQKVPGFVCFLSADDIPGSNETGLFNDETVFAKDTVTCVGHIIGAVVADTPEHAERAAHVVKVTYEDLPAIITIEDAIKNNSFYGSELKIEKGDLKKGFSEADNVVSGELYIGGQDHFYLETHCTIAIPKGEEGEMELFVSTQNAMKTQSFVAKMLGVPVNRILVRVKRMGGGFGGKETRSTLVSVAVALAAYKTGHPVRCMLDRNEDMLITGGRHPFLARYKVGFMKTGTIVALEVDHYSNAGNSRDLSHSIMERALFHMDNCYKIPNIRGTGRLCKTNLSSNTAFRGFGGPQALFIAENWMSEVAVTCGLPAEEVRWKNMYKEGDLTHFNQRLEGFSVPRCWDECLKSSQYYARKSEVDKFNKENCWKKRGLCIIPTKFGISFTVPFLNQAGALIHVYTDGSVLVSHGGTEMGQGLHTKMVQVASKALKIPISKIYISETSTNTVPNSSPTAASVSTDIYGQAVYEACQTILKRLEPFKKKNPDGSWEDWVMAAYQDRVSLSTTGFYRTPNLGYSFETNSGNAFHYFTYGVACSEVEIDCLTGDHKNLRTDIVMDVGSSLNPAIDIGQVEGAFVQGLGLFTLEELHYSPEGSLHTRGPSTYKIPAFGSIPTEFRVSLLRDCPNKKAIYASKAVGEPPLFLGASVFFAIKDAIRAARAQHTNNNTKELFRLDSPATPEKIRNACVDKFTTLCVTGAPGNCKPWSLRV
T2 sequence (P80457 whole entry): as the sequence (P80457 whole entry, the tested form may be a part) above

Row | Structure (SMILES) | binding degree (BD) [1] [%] | IC50 (Xanthine oxidase (XOD))
1 | O=C(O)CC(=O)OC[C@H]1O[C@@H](Oc2cc(O)c3c(=O)cc(-c4ccc(O)c(O)c4)oc3c2)[C@H](O)[C@@H](O)[C@@H]1O [Compound 15, Luteolin 7-O-6′-malonyl glucoside] | 99.0 | 2020 µM
2 | O=c1cc(-c2ccc(O)cc2)oc2cc(O)cc(O)c12 [Compound 24, Apigenin] | 95.5 | 93 µM and 92.6 µM
3 | COc1cc(-c2cc(=O)c3c(O)cc(OC4OC(COC(=O)CC(=O)O)C(O)C(O)C4OC4OCC(O)(CO)C4O)cc3o2)ccc1O (stereo not drawn) [Compound 20, Chrysoeriol 7-O-6″-malonyl apiosylglucoside] | 52.0 | –
4 | O=c1cc(-c2ccc(O)c(O)c2)oc2cc(O)cc(O)c12 [Compound 21, Luteolin] | 97.8 | 69.2 µM
5 | COc1cc(-c2cc(=O)c3c(O)cc(O)cc3o2)ccc1O [Compound 25, Chrysoeriol] | 96.7 | –
6 | O=c1cc(-c2ccc(O)c(O)c2)oc2cc(O[C@@H]3O[C@H](CO)[C@@H](O)[C@H](O)[C@H]3O)cc(O)c12 [Compound 10, Luteolin 7-O-glucoside] | 95.9 | 976 µM

Continued, values first:

Row | binding degree (BD) [1] [%] | IC50 (Xanthine oxidase (XOD)) | Structure (SMILES)
7 | 50.5 | – | CCCC[C@H]1OC(=O)C2=C1CC[C@H](O)[C@H]2O [Compound 11, Senkyunolide J]
8 | 63.2 | – | O=C(O)CC(=O)OC[C@H]1O[C@@H](Oc2cc(O)c3c(=O)cc(-c4ccc(O)cc4)oc3c2)[C@H](O[C@@H]2OC[C@](O)(CO)[C@H]2O)[C@@H](O)[C@@H]1O [Compound 19, 6″-Malonylapiin]
9 | 93.6 | – | C[C@@]1(O)CO[C@@H](O[C@H]2[C@H](Oc3cc(O)c4c(=O)cc(-c5ccc(O)c(O)c5)oc4c3)O[C@H](COC(=O)CC(=O)O)[C@@H](O)[C@@H]2O)[C@@H]1O [Compound 14, Luteolin 7-O-malonyl-apiosylglucoside]
10 | 89.1 | 3140 µM | O=c1cc(-c2ccc(O)c(O)c2)oc2cc(O[C@@H]3O[C@H](CO)[C@@H](O)[C@H](O)[C@H]3O[C@@H]3OC[C@](O)(CO)[C@H]3O)cc(O)c12 [Compound 9, Luteolin 7-O-apiosylglucoside]

Source: article PMC10458824, “Identification of Xanthine Oxidase Inhibitors from Celery Seeds Using Affinity Ultrafiltration–Liquid Chromatography–Mass Spectrometry” (Molecules, 2023)
